# Test results reported in US20250332223A1, “GHRH ANTAGONISTS FOR USE IN A METHOD OF TREATING SARCOIDOSIS” (University of Miami, priority 2019, published 2025).
# Entries after “also recorded” stand apart in the source; their conditions may differ.
# Experiments:
# [1] = tested on: mouse model of pulmonary sarcoidosis; assay: Mouse model of pulmonary sarcoidosis, lung inflammation grading (Example 1); assay type: in vivo, C57B1/6 mice; details: sarcoidosis mice, treated two weeks, vs saline-treated sarcoidosis group; MIA-602 5 μg/day intraperitoneal; FIGS. 1A-E
# Procedure: Granulomatous reaction in the mouse lung was developed as previously described (Zhang et al., Front Immunol 2019; 10: 2888).
# (§1) The detail of the methodology used for confocal microscopy is discussed in Zhang et al., Front Immunol 2019; 10: 2888. To summarize, mice were killed on day 14, and the left lungs were harvested. Lungs were filled with 10% buffered formalin and fixed in formalin for at least 72 h before IHC staining. H&E staining was used to determine inflammatory pathology.
# (§2) Lung inflammation was scored using the three fields with the highest infiltrate's intensity at 100× power magnification as previously described (Zhang et al., Front Immunol 2019; 10: 2888). The area of inflammation was measured and averaged for the three examined high-power fields.
# A mouse model of pulmonary sarcoidosis was established in C57B1/6 mice by administering microparticles intratracheally. The tongue was pulled out with a small spatula and microparticles were inserted into the trachea using a 20 G angio-catheter tube at the time of laryngeal opening and advanced to main bronchus until reach to resistant. After tube placement, microparticles were administered: a first dose of 5×10^8 CFU of M. abscessus in 50 μL with three subsequent doses of 2×10^8 CFU of M. abscessus in 20 μL. A control group received only 20 μL PBS intratracheally. Mice receiving microparticles developed noncaseating granuloma in the lung, as observed use H&E staining and immunohistochemistry staining for CD68 macrophage marker, CD4 marker, and PD-L1.
# The first sarcoidosis group received MIA-602 (5 μg/day), administered via intraperitoneal injection. The second sarcoidosis group received α-melanocyte stimulating hormone (α-MSH), the third sarcoidosis group received steroid treatment (methyl-prednisone, the current first line treatment for sarcoidosis), and the fourth group received only saline. Mice were sacrificed after two weeks, and inflammation in lung samples was graded.
# [2] = tested on: mouse pulmonary granulomatous model; assay: Mouse pulmonary granulomatous model, H&E and IHC scoring of lung (Example 4); assay type: in vivo, C57B1/6 mice
# Procedure: as §1
# (§3) For immunohistochemistry, 5-μm paraffin sections were processed by deparaffinization and rehydration followed by endogenous peroxidase blocking (1% H2O2 in methanol for 20 minutes) and antigen retrieval (boiled in 10 mM citrate buffer for 30 minutes). Tissue sections were blocked with 2% goat or horse serum (Vector Laboratories) and incubated with antibody CD68 (Proteintech, Cat #25747-1-AP), PD-1 (Cell Signaling, cat #84651), PD-L1 (Proteintech, Cat #17952-1-AP), CD30 (Lsbio, cat #LS-c162069) CD3 (Cell Signaling, cat #99940), iNOS (Invitrogen, cat #PAI-036), or Nitrotyrosine (Novus, NBP2-54606) over night at 4° C., washed with TBST five times, then exposed to secondary antibodies (Vector Laboratories, cat #PI-2000). Immunoreactivity was detected using the ABC Elite kit (Vector Laboratories). DAB was used as final chromogen and hematoxylin as the nuclear counterstain. Negative controls for all antibodies were made by replacing the primary antibody with non-immunogen IgG.
# as §2
# A mouse pulmonary granulomatous model was established for studying type I IFN pathways after exposure to M. abscessus cell wall. The model is applicable for pulmonary sarcoidosis studies due to its characteristics of noninfectious lung granulomatous model. C57B1/6 mice were used to develop the model (Zhang et al., Front Immunol 2019; 10: 2888).
# Mice were treated with 5 μg of a peptide of the disclosure, MIA-602, per day via intraperitoneal injection. After two weeks, the mice were sacrificed, and lung inflammation was graded by a lung pathologist. Lung samples were stained with H&E, CD68, PD1, PD-L1, and CD30, and scored based on percentage of cells expressing each marker.
# [3] = tested on: sarcoidosis mice model; assay: NOS2 and nitrotyrosine staining of lung in sarcoidosis mice model (Example 6); assay type: in vivo; details: daily intraperitoneal MIA-602 5 μg, lung harvested after three weeks
# Procedure: as §3
# Inducible nitric oxide synthases (iNOS) produces nitric oxide and has a crucial role in granuloma development. iNOS is expressed in macrophages after exposure to bacterial lipopolysaccharides and IFNγ (Facchetti et al., Am J Pathol 1999; 154: 145-152). […] Lung tissue was harvested after three weeks and tissue stained with NOS2 and nitrotyrosine. […] The finding was not statistically significant.
# [4] = tested on: sarcoidosis mice model; assay: RNASeq transcriptomics of lung in sarcoidosis mice model (Example 7); assay type: in vivo; details: granuloma mice, daily MIA-602 5 μg intraperitoneal vs saline
# Procedure: RNA from mouse lungs were extracted using RNA Miniprep Plus Kit (Zymo Research). Briefly, whole lung was homogenized in TRI reagent and total RNA extraction was performed following the instructions provided by the manufacturer with additional DNase treatment. Quantity and quality of the samples were determined by NanoDrop spectrophotometer and Agilent Bioanalyzer 2100, respectively (Zhang et al., Front Immunol 2019; 10: 2888).
# Preparation and sequencing of RNA libraries was performed. Briefly, total RNA quantity and quality were determined using the Agilent Bioanalyzer. At least 300 ng of total RNA was used as input for the KAPA RNA HyperPrep Kit with RiboErase (HMR) according to manufacturer's protocol to create ribosomal RNA-depleted sequencing libraries. Sequencing was performed on the Illumina NextSeq 500, generating ˜40 million single-end 75 base reads per sample. Sequencing data were processed with a bioinformatics pipeline including quality control, alignment to the […], and gene quantification. Count data was inputted into edgeR software for differential expression analysis. Counts were normalized using the trimmed mean of M-values (TMM) method to account for compositional difference between the libraries and paired differential expression analysis using a generalized linear model with sample as a blocking factor. […]
# [5] = tested on: in vitro granuloma model (PBMCs challenged with microparticles); assay: Pro- and anti-apoptotic protein levels in in vitro granuloma model (Example 3); assay type: cell-based, human; details: 1 μM MIA-602, 48 h
# Procedure: In vitro granuloma was developed by challenging PBMC with microparticles as previously described (Zhang et al., Sci Rep 2020; 10: 7277). (Zhang et al., Sci Rep 2020; 10: 7277), PBMCs were lysed in lysis buffer (Cell Signaling Technology, Beverly, MA) with protease inhibitor cocktail (Cell Signaling Technology, Beverly, MA) and sonicated three times for 2 seconds each with at least 1-min rest on ice between each 2-s pulse. Samples were centrifuged at 10,000×g for 5 min at 4° C. and the supernatant was collected. Protein concentration was determined by BCA protein assay kit from Cell Signaling Technology. The methodology is further described in .Zhang et al., Sci Rep 2020; 10: 7277. Thirty micrograms of total protein were mixed in a reducing sample buffer and used for mitochondrial apoptosis assay per the kit instruction. The assay was performed using a Bio-Rad kit (171-WAR3CK). The ability of a peptide of the disclosure, MIA-602, to influence respiration and apoptosis in granuloma cells was examined. The specific processes of apoptosis and mitochondrial dynamics in granuloma have not been fully elucidated. To test if MIA-602 had pro- or anti-apoptotic effects, the protein levels of pro-(active caspase-3) and anti-apoptotic factors (survivin, Bcl-xL/Bak dimer, and Mcl-1/Bak dimer) were measured in an in vitro granuloma model. […] Media were removed 48 h after treatment.
# [6] = tested on: sarcoidosis mice model; assay: Flow cytometry of lung single cells in sarcoidosis mice model (Example 5); assay type: in vivo; details: MIA-602 5 μg, two weeks
# Procedure: Mice were sacrificed on day 14, and the left lungs were harvested for pathology after perfusing the right ventricle with 10 ml of PBS.
# The upper half of left lung tissue (without trachea, main bronchus and branches) was removed and rinsed by PBS to clean off blood. The tissue was minced and dispersed with a scissors to increase total surface area. To develop single cell suspension, the rubber end of a 5 ml plastic syringe was used to mesh cells through a 100 μm cell strainer with continuous rinse using ice-cold RPMI 1640. Cell suspension was again meshed through a 70 μm cell strainer and rinsed thoroughly with 3 ml of washing buffer containing DNAse followed by 15 ml of DNAse-free washing buffer. The sample was centrifuged at 286×g and 18° C. for 5 min, and the supernatant was discarded (Posel et al. J Vis Exp 2016: 53658).
# The cells (10^6 cells/ml) were resuspended in 100 μl protein blocking solution with 5 μl fluorescent conjugated antibodies, CD8 (Biolegend Cat #100714, CD45 (Biolegend Cat #103130), CD68 (Biolegend Cat #137004), PD-1 (Biolegend Cat #135219), PD-L1 (Biolegend Cat #124308), CD4 (Biolegend Cat #100510), CD11b (Biolegend Cat #101243), CD11c (Biolegend Cat #117318), F4/80 (Biolegend Cat #123146), or IFNg (Biolegend Cat #505836). Samples were analyzed on a BD LSR II flow cytometer using BD FACSDiva software, and data analysis was performed using Flowjo software (TreeStar, Ashland, OR). Cell populations were identified using sequential gating strategy; the expression of activation markers was presented as median fluorescence intensity. Lung immune cells were classified based on FC marker expression as previously described (Misharin et al., Am J Respir Cell Mol Biol 2013; 49: 503-510).
# Mice were grouped as control, challenged with microparticles and treated with saline, challenged and treated with MIA-602 (5 μg), and challenged and treated with methyl prednisolone (100 μg). After two weeks, lungs were harvested from all groups, and lung single cells were generated for flow cytometry analysis.
# [7] = tested on: granuloma (PBMC challenged with microparticles); assay: Cytokine production in in vitro granuloma from PBMC of sarcoidosis subjects, multiplex ELISA (Example 2); assay type: cell-based, human; details: 1 microM MIA-602, 48 h, media
# Procedure: In vitro granuloma was developed by challenging PBMC with microparticles as previously described (Zhang et al., Sci Rep 2020; 10: 7277).
# To measure cytokines in media, supernatant aliquot samples were analyzed, thawed, and spun at 12,000 rpm for 10 min to separate the particulate material at the bottom. Fifty μl of undiluted media was plated from each sample onto a 96-well V-bottom plate (source plate) by manual pipetting according to predefined maps. The aliquots were wrapped in parafilm and kept in a humid chamber at 4° C. during the entire process, but not longer than 72 hr. Growth factors and their receptor's capture antibodies were reconstituted and diluted per manufacturer specification and 50 μl plated into each well of respective 96-well high-binding half-well plates, which were then sealed and incubated overnight at 4° C. The cytokine levels were measured using a procartaplex human th1/th2 cytokine panel 11 plex from Invitrogen, (epx110-10810-901).
# Granuloma and PBMC were collected from five sarcoidosis subjects. The samples were grouped as control (not challenged), granuloma group challenged with a 10:1 treatment with microparticles but left untreated, challenged granuloma group treated with 1 microM MIA-602 in vitro, and challenged granuloma group treated with methyl prednisolone in vitro. Media were removed 48 h after of treatments. Cytokines were measured using an multiplex ELISA instrument.
compound,measurement,setting,value
C[C@H]1C[C@@H]2[C@H]([C@@H](O)C[C@@]3(C)[C@H]2CC[C@]3(O)C(=O)COC(=O)CCC(=O)[O-])[C@@]2(C)C=CC(=O)C=C12.[Na+] [methyl-prednisone],inflammation in lung samples (inflammation score),[1],did not affect inflammation
"[PhAc-Ada^0-Tyr^1, D-Arg^2, Fpa5^6, Ala^8, Har^9, Tyr(Me)^10, His^11, Orn^12, Abu^15, His^20, Orn^21, Nle^27, D-Arg^28, Har^29]hGH-RH(1-29)NH2 [MIA-602]",inflammation in lung samples (inflammation score),[1],lower inflammation scores
same,lung inflammation score,"[2]; 5 μg MIA-602 per day intraperitoneal, two weeks, vs granuloma group, H&E",lower inflammation scores; also recorded: almost normalized
same,CD30 cells in lung,"[2]; 5 μg MIA-602 per day intraperitoneal, two weeks, IHC",nonsignificantly reduced
same,percentage of CD68+ cells in the lung,"[2]; 5 μg MIA-602 per day intraperitoneal, two weeks, IHC, changes not statistically significant",decreased
same,PD-1+ cells in the lung,"[2]; 5 μg MIA-602 per day intraperitoneal, two weeks, IHC, same pattern as CD68+ (increased in granuloma, decreased with MIA-602, not significant)",This pattern was seen
same,inflammatory cell numbers in lung tissue,[2]; summary of animal model study,reduced inflammatory cell numbers significantly
same,NOS2 expression,[3]; FIG. 7,reduced following MIA-602 treatment. The finding was not statistically significant
same,nitrotyrosine levels,[3]; FIG. 8,"reduced the nitrotyrosine levels, but the reduction was not statistically significant"
same,genes downregulated,[4],293 genes
same,genes upregulated,[4],778 genes
same,survivin levels,[5]; FIG. 3A,no statistical difference between groups
same,active caspase 3 level,[5]; FIG. 3D,further increased
same,level of Mcl-1/Bak dimer,"[5]; reduced in untreated granuloma, FIG. 3B",restored
same,BclxL/Bak Dimer levels,"[5]; vs granuloma treated with saline, FIG. 3C",increased
same,population of CD45+CD68 cells,[6]; FIG. 6A,significantly reduced
same,percentage of CD45+CD68+ cells that expressed PD-1,[6]; FIG. 6B,significantly increased
same,population of CD45+CD68+PD-L1 cells,[6]; FIG. 6C,a higher percentage was detected
same,cytokine production of CCL2,[7],significantly reduced
same,cytokine production of CCL5,[7],significantly reduced
same,cytokine production of CXCL9,[7],significantly reduced
same,cytokine production of IFNα,[7],significantly reduced
same,cytokine production of IL2,[7],significantly reduced
same,cytokine production of IL7,[7],significantly reduced
same,cytokine production of IL10,[7],significantly reduced
same,cytokine production of IL12,[7],significantly reduced
same,cytokine production of IL15,[7],significantly reduced
same,cytokine production of IL17A,[7],significantly reduced
α-melanocyte stimulating hormone [a-MSH],inflammation in lung samples (inflammation score),[1],lower inflammation scores
